These are literature values, as cited in EP3653214A1, “IMPROVED DOSAGE REGIMEN FOR URSODEOXYCHOLIC ACID BASED ON ALKALINE PHOSPHATASE LEVELS IN THE TREATMENT OF CHRONIC CHOLESTATIC LIVER DISEASES” (Disphar International B.V., priority 2018, dated 2020).

Molecules are shown by their SMILES.

For the data set the following is noted: in vivo.

As to `C[C@H](CCC(=O)O)[C@H]1CC[C@H]2[C@@H]3[C@@H](O)C[C@@H]4C[C@H](O)CC[C@]4(C)[C@H]3CC[C@]12C` [UDCA, ursodeoxycholic acid], the tolerability result is recorded as “generally well tolerated”.
